The source of these data is paper PMC7731379, “Withanolide-Type Steroids from Withania aristata as Potential Anti-Leukemic Agents” (Molecules, 2020).

Data set [1] has as its system HL-60 (human promyelocytic leukemia cell line). Conditions: 48 h.
Procedure: (§1) HL-60 (human promyelocytic leukemia cell line) and Vero (African green monkey kidney) cell lines from American Type Culture Collection (ATCC-LGC) were each grown in Dulbecco’s modified Eagle’s medium (DMEM) with 4.5 g/L glucose (Sigma-Aldrich), supplemented with 10% fetal bovine serum (Gibco), 1% of a penicillin–streptomycin mixture (10.000 and 10 mg/mL, respectively), and 200 mM L-glutamine. Cells were maintained at 37 °C in 5% CO2 and 98% humidity.
(§2) Viable cells were assessed using the colorimetric MTT [3-(4,5-dimethylthiazol-2-yl)-2,5-diphenyl tetrazolium bromide reduction assay [49]. A cell suspension (1 × 10^4 /200 μL/well) in log-phase of growth seeded in DMEM, supplemented with 5% fetal bovine serum in microtiter well plates (96 wells, Iwaki, London, UK) were added to compounds predissolved in dimethylsulphoxide (DMSO) at different concentrations. After 48 h of incubation, 20 μL/well of the MTT solution (5 mg/mL in phosphate buffered saline, PBS) were added and plates incubated for 4 h at 37 °C. Subsequently, the medium/MTT solutions were removed carefully by aspiration and replaced with 150 μL/well of DMSO to dissolve the formazan crystals. Absorbance was measured in a microplate reader (Infinite M200, Tecan) at a wavelength of 550 nm. Solvent control cultures were considered 100% and percentage of viable treated cells were plotted against compound concentrations. The 50% cell viability value (IC50) was calculated from the curve. Each experiment was performed at least three times in triplicates. Data are given in arithmetic means ± SD. Selectivity ratio was defined as IC50 value for the tumoral cell line divided by IC50 value for the Vero cell line.
Data set [2] has as its system Vero (African green monkey kidney) cell line. As to conditions: 48 h.
Procedure: as §1, §2
Data set [3] has as its system HL-60 (human promyelocytic leukemia cell line). Kind of data set: MTT cell viability (antiproliferative) assay, HL-60. Conditions: Vero (IC50) on HL-60 (IC50).
Procedure: as §1, §2

Take `CC1=C(CO)C(=O)OC(C(C)C2(O)CCC3C4CC=C5C(O)C=CC(=O)C5(C)C4CCC32C)C1` (stereo not drawn) [Compound 13, 4β,17α,27-trihydroxy-1-oxo-witha-2,5,24-trienolide]: the IC50 in data set [1] came out at 12.3 ± 0.11 µM; in data set [2] it was 23.8 ± 0.41 µM. The “SI (selectivity index)” value in data set [3] is listed as 1.9.
